What was measured:
Assay in all cases: relative viability (nuclei count vs DMSO), 5 days (fraction); higher = more cells survive
Sorafenib + AZD7762 = compound: CNC(=O)c1cc(Oc2ccc(NC(=O)Nc3ccc(Cl)c(C(F)(F)F)c3)cc2)ccn1 [Sorafenib] + NC(=O)Nc1cc(-c2cccc(F)c2)sc1C(=O)N[C@H]1CCCNC1 [AZD7762] (partner 0.2 µM)
Method in brief: (§1)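 Each reported value is a median over duplicate plates. It expresses relative viability: treated-well nuclei count divided by vehicle-well nuclei count. Lung cancer cell lines in 1536-well plates were dosed by pin tool a day after seeding, alone with one drug or with a fixed anchor-drug dose plus five library-drug doses (not always all listed) in √10 steps, and nuclei were counted after 5 days.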

Sorafenib + Pemetrexed = compound: CNC(=O)c1cc(Oc2ccc(NC(=O)Nc3ccc(Cl)c(C(F)(F)F)c3)cc2)ccn1 [Sorafenib] + Nc1nc2[nH]cc(CCc3ccc(C(=O)N[C@@H](CCC(=O)O)C(=O)O)cc3)c2c(=O)[nH]1 [Pemetrexed] (partner 0.2 µM)
Method in brief: as §1

Sorafenib + Pictilisib = compound: CNC(=O)c1cc(Oc2ccc(NC(=O)Nc3ccc(Cl)c(C(F)(F)F)c3)cc2)ccn1 [Sorafenib] + CS(=O)(=O)N1CCN(Cc2cc3nc(-c4cccc5[nH]ncc45)nc(N4CCOCC4)c3s2)CC1 [Pictilisib] (partner 1 µM)
Method in brief: as §1

Sorafenib + Phenformin = compound: CNC(=O)c1cc(Oc2ccc(NC(=O)Nc3ccc(Cl)c(C(F)(F)F)c3)cc2)ccn1 [Sorafenib] + N=C(N)NC(=N)NCCc1ccccc1 [Phenformin] (partner 250 µM)
Method in brief: as §1

Sorafenib + Trametinib = compound: CNC(=O)c1cc(Oc2ccc(NC(=O)Nc3ccc(Cl)c(C(F)(F)F)c3)cc2)ccn1 [Sorafenib] + CC(=O)Nc1cccc(-n2c(=O)n(C3CC3)c(=O)c3c(Nc4ccc(I)cc4F)n(C)c(=O)c(C)c32)c1 [Trametinib] (partner 0.02 µM)
Method in brief: as §1

| Cell Line | relative viability (Sorafenib + AZD7762; first compound 0.08 µM) | relative viability (Sorafenib + AZD7762; first compound 0.253 µM) | relative viability (Sorafenib + AZD7762; first compound 2.53 µM) | relative viability (Sorafenib + Pemetrexed; first compound 0.08 µM) | relative viability (Sorafenib + Pemetrexed; first compound 0.253 µM) | relative viability (Sorafenib + Pemetrexed; first compound 2.53 µM) | relative viability (Sorafenib + Pemetrexed; first compound 8 µM) | relative viability (Sorafenib + Pictilisib; first compound 0.08 µM) | relative viability (Sorafenib + Pictilisib; first compound 0.253 µM) | relative viability (Sorafenib + Pictilisib; first compound 2.53 µM) | relative viability (Sorafenib + Pictilisib; first compound 8 µM) | relative viability (Sorafenib + Phenformin; first compound 0.253 µM) | relative viability (Sorafenib + Phenformin; first compound 2.53 µM) | relative viability (Sorafenib + Phenformin; first compound 8 µM) | relative viability (Sorafenib + Trametinib; first compound 0.08 µM) | relative viability (Sorafenib + Trametinib; first compound 0.253 µM) | relative viability (Sorafenib + Trametinib; first compound 2.53 µM) | relative viability (Sorafenib + Trametinib; first compound 8 µM) | relative viability (Sorafenib + AZD7762; first compound 8 µM) | relative viability (Sorafenib + Phenformin; first compound 0.08 µM) |
| --- | --- | --- | --- | --- | --- | --- | --- | --- | --- | --- | --- | --- | --- | --- | --- | --- | --- | --- | --- | --- |
| 201T | 0.575 | 0.554 | 0.449 | 0.334 | 0.302 | 0.334 | 0.328 | 0.684 | 0.669 | 0.72 | 0.65 | 0.423 | 0.42 | 0.432 | 0.679 | 0.726 | 0.735 | 0.762 |  |  |
| A-427 | 0.831 | 0.675 | 0.715 | 0.926 | 0.919 | 1.05 | 0.954 | 0.771 | 0.669 | 0.768 | 0.376 | 0.389 | 0.333 | 0.115 | 0.731 | 0.754 | 0.551 | 0.383 | 0.541 | 0.444 |
| ABC-1 | 1.09 | 0.714 | 0.876 |  |  |  |  | 0.78 | 0.713 | 1.02 | 0.332 | 0.234 | 0.247 | 0.233 |  |  |  |  | 0.68 | 0.218 |
| BEN |  | 0.493 | 0.741 | 0.839 | 0.657 |  | 0.674 | 0.649 | 0.512 | 0.531 | 0.413 | 0.254 | 0.239 | 0.205 | 1.11 | 0.911 | 0.945 | 0.913 | 0.611 | 0.278 |
| CAL-12T | 0.642 | 0.528 | 0.616 | 1.22 | 1.1 | 1.01 | 1.13 | 0.6 | 0.396 | 0.575 | 0.396 | 0.54 | 0.583 | 0.202 | 0.5 | 0.312 | 0.339 | 0.213 | 0.432 | 0.641 |
| COR-L23 |  |  |  | 0.2 | 0.199 | 0.19 | 0.212 | 0.952 | 0.881 | 0.745 | 0.676 | 0.419 | 0.455 | 0.287 | 0.645 | 0.433 | 0.312 | 0.232 |  | 0.44 |
| COR-L 105 |  |  |  | 1.26 | 1.31 | 1.32 | 0.852 | 0.413 | 0.487 | 0.476 | 0.329 | 0.458 | 0.561 | 0.441 | 0.51 | 0.472 | 0.432 | 0.378 |  | 0.534 |
| ChaGo-K-1 | 0.899 | 0.796 | 0.845 | 0.247 | 0.258 | 0.264 | 0.248 | 0.939 | 0.592 | 0.794 | 0.399 | 0.405 | 0.469 | 0.299 | 0.884 | 0.855 | 0.886 | 0.708 | 0.809 | 0.552 |
| EKVX | 0.837 | 0.638 | 0.627 | 0.511 | 0.365 | 0.375 | 0.389 | 0.529 | 0.463 | 0.434 | 0.393 | 0.24 | 0.24 | 0.201 | 0.36 | 0.349 | 0.317 | 0.219 | 0.57 | 0.243 |

From the supplement of paper PMC10307832
